Data taken from patent US12344611B2, “Bridged cycloformylpyridine derivatives and uses thereof” (BroadenBio Co., Ltd., priority 2019, dated 2025).

Assays:
[1] = tested on: HuH-7 hepatoma cells; assay: In vitro cell proliferation assay (CellTiter-Glo, CTG), HuH-7; format: cell-based; settings: HuH-7 cells
Method: (§1) In Vitro Cell Proliferation Assay of FGFR4 (CellTiter-Glo Luminescent Cell Viability Assay, CTG Assay)
(§2) Hep 3B hepatoma cells were purchased from Cell Resource Center of Peking Union College, and HuH-7 hepatoma cells were purchased from Shanghai Biological Technology Co., Ltd. enzyme research. The cells were prepared at a concentration of 3×10^4/mL, which was then added with 100 μL to each well of a 96-well transparent flat-bottom black-walled plate to make 3000 cells per well. Incubate overnight at 37° C. in 5% CO2 incubator. Dilute a compound and add it to the wells having the cells, then add cell culture medium to 200 μL per well. Put in CO2 incubator for incubation. After 96 hours, 100 μL of culture medium was removed from each well, 100 μL of CTG was added, and the 96-well plate was placed on a shaker for 10 minutes, and placed in the shade at room temperature for 45 minutes. Data was read out by SoftMax Pro i3X Microplate Reader of MD, analyzed by the software GraphPad Prism 5.0, and S-shaped dose-response curve was drawn, then the EC50 values were calculated.

[2] = tested on: Hep 3B hepatoma cells; assay: In vitro cell proliferation assay (CellTiter-Glo, CTG), Hep 3B; format: cell-based, human; settings: Hep 3B cells
Method: as §1, §2

[3] = target: FGFR4 (Homo sapiens, UniProt P22455); assay: In vitro biochemical kinase analysis of FGFR4 (HTRF KinEASE-TK); settings: HTRF kinase assay
Method: In Vitro Biochemical Kinase Analysis of FGFR4
FGFR4 protein kinase detection kit was purchased from Cisbio (HTRF KinEASE-TK kit). Prepare 1× kinase reaction buffer. Transfer 10 nL of a diluted compound to each well of a reaction plate (784075, Greiner) with an Echo 550, and seal the plate with sealing film. The reaction plate was centrifuged at 1000 g for 1 minute. Prepare 2×FGFR4 using 1× kinase reaction buffer, add 5 μL of kinase to each well of the reaction plate, seal the plate, centrifuge at 1000 g for 30 seconds, and incubate it at room temperature for 10 minutes. Prepare a mixture of 2×TK-substrate-biotin and ATP using 1× kinase reaction buffer, add 5 μL of TK-substrate-biotin/ATP mixture to the reaction plate, seal the plate with sealing film, centrifuge at 1000 g for 30 seconds, and react at room temperature for 40 minutes. Prepare 2×Sa-XL 665 and TK-antibody-Cryptate mixture using HTRF detection buffer, add 10 μL Sa-XL 665 and TK-antibody-Cryptate mixture to each well, centrifuge at 1000 g for 30 seconds, and react at room temperature for 1 hour. Envision 2104 read fluorescence signals at 615 nm (Cryptate) and at 665 nm (XL665). IC50 of the compound was calculated using the GraphPad nonlinear fitting formula.

FGFR4, sequence (P22455 22-802): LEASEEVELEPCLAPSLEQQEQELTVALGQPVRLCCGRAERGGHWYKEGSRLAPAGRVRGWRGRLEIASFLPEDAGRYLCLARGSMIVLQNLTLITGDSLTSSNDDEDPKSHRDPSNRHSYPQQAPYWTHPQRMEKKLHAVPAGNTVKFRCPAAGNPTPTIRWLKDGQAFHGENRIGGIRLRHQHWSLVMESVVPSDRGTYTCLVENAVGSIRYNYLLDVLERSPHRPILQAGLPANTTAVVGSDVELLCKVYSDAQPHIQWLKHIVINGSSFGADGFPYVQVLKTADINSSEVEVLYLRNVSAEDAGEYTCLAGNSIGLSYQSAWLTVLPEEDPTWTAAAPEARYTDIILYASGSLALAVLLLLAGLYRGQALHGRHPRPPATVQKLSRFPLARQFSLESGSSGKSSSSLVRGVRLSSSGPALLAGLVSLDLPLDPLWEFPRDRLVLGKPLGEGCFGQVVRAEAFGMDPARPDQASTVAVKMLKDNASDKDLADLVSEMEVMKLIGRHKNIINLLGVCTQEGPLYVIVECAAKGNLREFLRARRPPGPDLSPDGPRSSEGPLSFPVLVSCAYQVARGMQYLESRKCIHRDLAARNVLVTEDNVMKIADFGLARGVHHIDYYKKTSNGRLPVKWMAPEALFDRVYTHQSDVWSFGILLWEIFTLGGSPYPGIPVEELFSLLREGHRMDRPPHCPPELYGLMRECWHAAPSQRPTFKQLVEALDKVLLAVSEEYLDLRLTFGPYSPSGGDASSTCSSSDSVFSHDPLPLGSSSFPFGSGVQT

| SMILES | EC50 ([1]; Homo sapiens, Huh-7, 96 h) [nM] | EC50 ([2]; Homo sapiens, Hep3B, 96 h) [nM] | IC50 [3] [nM] | EC50 ([1]; 96 hours) [nM] | EC50 ([2]; 96 hours) [nM] |
| --- | --- | --- | --- | --- | --- |
| CO[C@@H]1CCC[C@H]1Nc1cc(NC(=O)N2c3nc(C=O)ccc3C3(F)CC2C3)ncc1C#N (relative stereo) [Compound 19, N-(5-cyano-4-(((trans)-2-methoxycyclopentyl)amino)pyridin-2-yl)-4-fluoro-7-formyl-3,4-dihydro-2,4-methylene-1,8-naphthyridine-1(2H)-carboxamide] | 31.6 | 6 | 0.8 | – | – |
| N#Cc1cnc(NC(=O)N2c3nc(C=O)ccc3C3(F)CC2C3)cc1N[C@@H]1CCC[C@H]1O (relative stereo) [Compound 20, N-(5-cyano-4-(((trans)-2-hydroxycyclopentyl)amino)pyridin-2-yl)-4-fluoro-7-formyl-3,4-dihydro-2,4-methylene-1,8-naphthyridine-1(2H)-carboxamide] | 24 | 1.2 | 0.6 | – | – |
| CO[C@@H]1CCC[C@H]1Nc1cc(NC(=O)N2c3nc(C=O)c(CN4CCN(C)CC4=O)cc3C3CC2C3)ncc1C#N (relative stereo) [Compound 26, N-(5-cyano-4-(((trans)-2-methoxycyclopentyl)amino)pyridin-2-yl)-7-formyl-6-((4-methyl-2-oxopiperazin-1-yl)methyl)-3,4-dihydro-2,4-methylene-1,8-naphthyridine-1(2H)-carboxamide] | 1 | 1.3 | 0.3 | – | – |
| CO[C@@H]1CCC[C@H]1Nc1cc(NC(=O)N2c3nc(C=O)ccc3C3(NC(=O)CN(C)C)CC2C3)ncc1C#N (relative stereo) [Compound 33, N-(5-cyano-4-(((trans)-2-methoxycyclopentyl)amino)pyridin-2-yl)-4-(2-(dimethylamino)acetamido)-7-formyl-3,4-dihydro-2,4-methylene-1,8-naphthyridine-1(2H)-carboxamide] | 0.08 | 0.3 | 0.3 | – | – |
| COC1CCCC1Nc1cc(NC(=O)N2c3nc(C=O)c(CN4CCN(C)CC4=O)cc3C3(F)CC2C3)ncc1C#N (single isomer, unassigned) [Compound 11-P1, N-(5-cyano-4-(((trans)-2-methoxycyclopentyl)amino)pyridin-2-yl)-4-fluoro-7-formyl-64(4-methyl-2-oxopiperazin-1-yl)methyl)-3,4-dihydro-2,4-methylene-1,8-naphthyridine-1(2H)-carboxamide] | – | – | 1.3 | 0.2 | 5.6 |
| COC1CCCC1Nc1cc(NC(=O)N2c3nc(C=O)c(CN4CCN(C)CC4=O)cc3C3(F)CC2C3)ncc1C#N (single isomer, unassigned) [Compound 11-P2, N-(5-cyano-4-(((trans)-2-methoxycyclopentyl)amino)pyridin-2-yl)-4-fluoro-7-formyl-64(4-methyl-2-oxopiperazin-1-yl)methyl)-3,4-dihydro-2,4-methylene-1,8-naphthyridine-1(2H)-carboxamide] | – | – | 9.8 | 73.1 | 32.1 |
| COC1CCCC1Nc1cc(NC(=O)N2c3nc(C=O)c(CN4CCN(C)CC4=O)cc3C3(F)CC2C3)ncc1C#N (single isomer, unassigned) [Compound 12-P1, N-(5-cyano-4-(((cis)-2-methoxycyclopentyl)amino)pyridin-2-yl)-4-fluoro-7-formyl-64(4-methyl-2-oxopiperazin-1-yl)methyl)-3,4-dihydro-2,4-methylene-1,8-naphthyridine-1(2H)-carboxamide] | – | – | 2.1 | 0.9 | 8.6 |
| CN1CCN(Cc2cc3c(nc2C=O)N(C(=O)Nc2cc(NC4CCCC4O)c(C#N)cn2)C2CC3(F)C2)C(=O)C1 (stereo not drawn) [Compound 17, N-(5-cyano-4-(((trans)-2-hydroxycyclopentyl)amino)pyridin-2-yl)-4-fluoro-7-formyl-6-((4-methyl-2-oxopiperazin-1-yl)methyl)-3,4-dihydro-2,4-methylene-1,8-naphthyridine-1(21-1)-carboxamide] | 0.6 | – | 0.7 | – | – |
| N#Cc1cnc(NC(=O)N2c3nc(C=O)ccc3C3(F)CC2C3)cc1NC1CNC1 [Compound 23, N-(5-cyano-4-(azetidin-3-ylamino)pyridin-2-yl)-7-formyl-4-fluoro-3,4-dihydro-2,4-methylene-1,8-naphthyridine-1(2H)-carboxamide] | – | 102 | – | – | – |
| COCCNc1cc(NC(=O)N2c3nc(C=O)ccc3C3(NC(=O)CN(C)C)CC2C3)ncc1C#N [Compound 30, N-(5-cyano-4-((2-methoxyethyl)amino)pyridin-2-yl)-4-(2-(dimethylamino)acetamido)-7-formyl-3,4-dihydro-2,4-methylene-1,8-naphthyridine-1(2H)-carboxamide] | 0.8 | – | 1.4 | – | – |
| COCCNc1cc(NC(=O)N2c3nc(C=O)ccc3C3(N(C)C4CCOC4)CC2C3)ncc1C#N (stereo not shown) [Compound 34, N-(5-cyano-4-((2-methoxyethyl)amino)pyridin-2-yl)-4-(methyl(tetrahydrofuran-3-yl)amino)-7-formyl-3,4-dihydro-2,4-methylene-1,8-naphthyridine-1(2H)-carboxamide] | – | 10.7 | 1.2 | – | – |
| COCCNc1cc(NC(=O)N2c3nc(C=O)ccc3C3(OCCN4CCCC4)CC2C3)ncc1C#N [Compound 35, N-(5-cyano-4-((2-methoxyethyl)amino)pyridin-2-yl)-4-(2-(pyrrolidin-1-yl)ethoxy)-7-formyl-3,4-dihydro-2,4-methylene-1,8-naphthyridine-1(2H)-carboxamide] | – | 2.2 | 1.1 | – | – |
| CCC(=O)NC12CC(C1)N(C(=O)Nc1cc(NCCOC)c(C#N)cn1)c1nc(C=O)ccc12 [Compound 37, N-(5-cyano-4-((2-methoxyethyl)amino)pyridin-2-yl)-4-propionamido-7-formyl-3,4-dihydro-2,4-methylene-1,8-naphthyridine-1(2H)-carboxamide] | – | 6.4 | 2.5 | – | – |
| COCCNc1cc(NC(=O)N2c3nc(C=O)ccc3C3(N(C)C(=O)c4cnn(C)c4)CC2C3)ncc1C#N [Compound 42] | – | 7.2 | 3.2 | – | – |
| COCCNc1cc(NC(=O)N2c3nc(C=O)ccc3C3(N4CCN(C)CC4=O)CC2C3)ncc1C#N [Compound 43, N-(5-cyano-4-((2-methoxyethyl)amino)pyridin-2-yl)-7-formyl-4-(4-methyl-2-oxopiperazin-1-yl)-3,4-dihydro-2,4-methylene-1,8-naphthyridine-1(2H)-carboxamide] | – | 6.5 | 3.1 | – | – |
| COCCNc1cc(NC(=O)N2c3nc(C=O)ccc3C3(NC(=O)N4CCOCC4)CC2C3)ncc1C#N [Compound 44, N-(5-cyano-4-((2-methoxyethyl)amino)pyridin-2-yl)-7-formyl-4-(morpholine-4-carboxamido)-3,4-dihydro-2,4-methylene-1,8-naphthyridine-1(2H)-carboxamide] | – | 12.3 | 2.5 | – | – |
| COCCNc1cc(NC(=O)N2c3nc(C=O)ccc3C3(OCC(=O)N4CCOCC4)CC2C3)ncc1C#N [Compound 45, N-(5-cyano-4-((2-methoxyethyl)amino)pyridin-2-yl)-4-(2-(morpholin-4-yl)-2-oxoethoxy)-7-formyl-3,4-dihydro-2,4-methylene-1,8-naphthyridine-1(2H)-carboxamide] | – | 11.4 | 1.8 | – | – |
| COCCNc1cc(NC(=O)N2c3nc(C=O)ccc3C3(NC(=O)CO)CC2C3)ncc1C#N [Compound 47, N-(5-cyano-4-((2-methoxyethyl)amino)pyridin-2-yl)-4-(2-hydroxyacetamido)-7-formyl-3,4-dihydro-2,4-methylene-1,8-naphthyridine-1(2H)-carboxamide] | – | 17.8 | 2.8 | – | – |
| COCCNc1cc(NC(=O)N2c3nc(C=O)ccc3C3(NC(=O)c4ccccn4)CC2C3)ncc1C#N [Compound 48, N-(5-cyano-4-((2-methoxyethyl)amino)pyridin-2-yl)-4-(pyridine-2-carboxamido)-7-formyl-3,4-dihydro-2,4-methylene-1,8-naphthyridine-1(2H)-carboxamide] | – | – | 1.6 | – | – |
| COCCNc1cc(NC(=O)N2c3nc(C=O)ccc3C3(NC(=O)c4ccc[nH]4)CC2C3)ncc1C#N [Compound 49] | – | – | 1.6 | – | – |
| COCCNc1cc(NC(=O)N2CCCc3cc(CN4CCN(C)CC4=O)c(C=O)nc32)ncc1C#N [Positive Control Compound, N-(5-cyano-4-((2-methoxyethyl)amino)pyridin-2-yl)-7-formyl-6-((4-methyl-2-oxopiperazin-1-yl)methyl)-3,4-dihydro-1,8-naphthyridine-1(2H)-carboxamide, reference compound] | 52 | 15 | – | – | – |
